# Patent US20230218624A1 (Urovant Sciences GmbH, priority 2017, published 2023)
# Assays:
# [1] = Drug interaction: effect of co-administered medication on vibegron PK; type: in vivo, human
# Source text: However, these interactions are not expected to be clinically significant.
# healthy subjects [2] = experiment: Phase 1 safety data; type: in vivo
# Method: Exposure, and therefore risk of adverse-events can be further reduced with a 50 mg dose.
# QTc interval = settings: human, in vivo, 400 mg
# healthy subjects [3] = experiment: Maximum MA4 heart rate in multiple-dose Phase 1 study; type: in vivo, human; settings: Day 14
# Method: More intensive assessments of heart rate and blood pressure were performed in healthy volunteers in several Phase 1 studies. […] Doses ranged from 25 to 400 mg once daily for 7 to 28 days depending on the cohort. Least squares mean and 90% confidence intervals of maximum change from baseline in moving average of heart rate over 4 hours postdose (MA4 HR) are presented in Table 17.
# [4] = vibegron 100 mg single dose with multiple doses of 240 mg or 180 mg diltiazem
compound,measurement,setting,value
"O=C(Nc1ccc(C[C@@H]2CC[C@H]([C@H](O)c3ccccc3)N2)cc1)[C@@H]1CCc2nccc(=O)n21 [Vibegron, (6S)—N-[4-[[(2S,5R)-5-[(R)-hydroxy(phenyl)methyl]pyrrolidin-2-yl]methyl]phenyl]-4-oxo-7,8-dihydro-6H-pyrrolo[1,2-a]pyrimidine-6-carboxamide]",effect of tolterodine ER 4 mg on the pharmacokinetics of vibegron,[1]; in vivo,no effect
same,"Cmax of vibegron, geometric mean",[1]; vibegron 100 mg single dose + diltiazem ER 240 mg QD,167 ng/mL
same,GM AUC0-inf increase,[1]; [4],63%
same,GM Cmax increase,[1]; [4],68%
same,GM t1/2,[1]; vibegron with diltiazem,75.4 h
same,tolerability,"healthy subjects [2]; Phase 1 program, single 2 to 600 mg, multiple 25 to 400 mg",generally well tolerated
same,orthostatic AEs,healthy subjects [2]; vibegron 100 mg coadministered in essential hypertension on metoprolol or amlodipine,no occurrences of orthostatic AEs
same,"AUC, mean ± SD",QTc interval,6800 ± 2300 ng·h/mL
same,Maximum MA4 HR difference from placebo (90% CI),healthy subjects [3]; 25 mg once daily,"−1.60 (−7.09, 3.88) bpm"
same,"Maximum MA4 HR, LS mean (90% CI)",healthy subjects [3]; 25 mg once daily,"1.47 (−3.24, 6.17) bpm"
same,Maximum MA4 HR difference from placebo (90% CI),healthy subjects [3]; 50 mg once daily,"−1.57 (−6.70, 3.56) bpm"
same,"Maximum MA4 HR, LS mean (90% CI)",healthy subjects [3]; 50 mg once daily,"1.50 (−2.79, 5.79) bpm"
same,"Maximum MA4 HR, LS mean (90% CI)",healthy subjects [3]; 100 mg once daily,"3.28 (−1.02, 7.57) bpm"
same,Maximum MA4 HR difference from placebo (90% CI),healthy subjects [3]; 150 mg once daily,"0.10 (−5.04, 5.23) bpm"
same,"Maximum MA4 HR, LS mean (90% CI)",healthy subjects [3]; 150 mg once daily,"3.17 (−1.13, 7.46) bpm"
same,Maximum MA4 HR difference from placebo (90% CI),healthy subjects [3]; 200 mg once daily,"2.60 (−2.89, 8.08) bpm"
same,"Maximum MA4 HR, LS mean (90% CI)",healthy subjects [3]; 200 mg once daily,"5.67 (0.96, 10.37) bpm"
same,Maximum MA4 HR difference from placebo (90% CI),healthy subjects [3]; 300 mg once daily,"5.98 (0.85, 11.12) bpm"
same,"Maximum MA4 HR, LS mean (90% CI)",healthy subjects [3]; 300 mg once daily,"9.06 (4.76, 13.35) bpm"
same,Maximum MA4 HR difference from placebo (90% CI),healthy subjects [3]; 400 mg once daily,"7.26 (2.13, 12.39) bpm"
same,"Maximum MA4 HR, LS mean (90% CI)",healthy subjects [3]; 400 mg once daily,"10.33 (6.04, 14.63) bpm"
